In PMC2374394, “Relationships between hydrophobicity, reactivity, accumulation and peripheral nerve toxicity of a series of platinum drugs” (British Journal of Cancer, 2000):
Values joined by “and” are separate entries in the source; they are usually repeats but may differ in a detail not shown here. Equal entries are not always repeated. Where two headings read alike, the source gives them in different places.

Key:
[1] = system: patients; conditions: cited from earlier work
[2] = system: female Wistar rats
Description: Neurotoxicity was detected by measuring sensory nerve conduction velocity (SNCV) in Wistar rats treated twice per week at the maximum tolerated dose. […] Animals and treatment Age-matched inbred female Wistar rats were used. Animals were allowed to acclimatize for 2 weeks before the start of the experiment. The animals were 10 weeks old and weighed 210- 240 g at the start of experiment. Platinum compounds (except JM216) were dissolved in sterile 0.9% (w/v) NaCl (Baxter Healthcare, New Zealand) by vortex mixing and sonication at an injection volume of 10 ml kg-1 . The platinum compounds (except JM216) were given by intraperitoneal injection on a twice per week dosing schedule at intervals of 3-4 days and the treatment was repeated weekly for a total of 8 weeks. […] Animals were weighed twice a week and checked for signs of toxicity daily. Animals showing signs of distress were immediately and painlessly killed. Animals had continuous access to food and water. […] Hypnorm (fluanisone 10 mg ml-1 , fentanyl citrate 0.3 mg ml-1 , Jansen Pharmaceuticals, Sydney, Australia) diluted 1:1 with sterile water was given by intramuscular injection to provide light anaesthesia. Responses were evoked by stimu- lating the sciatic nerve at the sciatic notch and the tibial nerve at the ankle of the left hind limb using percutaneous needle elec- trodes.

[3] = Hydrophobicity (log kw), reverse-phase HPLC coupled to ICP-MS; type: physicochemical; conditions: HPLC C8 column, actual or projected mobile phase 100% water; determinants from independent experiments
[4] = Hydrophobicity (log P), octanol-saline shake-flask method; conditions: n-octanol / 0.9% NaCl shake-flask, platinum by ICP-MS, mean (n = 5)
[5] = system: plasma proteins; parameters: method as in van der Vijgh and Klein, 1986; conditions: ref van der Vijgh and Klein, 1986; cited from earlier work
[6] = system: female Wistar rats; conditions: cited from earlier work
[7] = system: plasma proteins
[8] = female Wistar rats, twice per week dosing schedule at the MTD, intraperitoneal
[9] = female Wistar rats, twice per week dosing schedule at the MTD, same protocol (JM216 by oral gavage), previous results ref McKeage et al, 1994, Screnci et al, 1997
[10] = rat plasma, 37C, initial half-life by one-phase exponential decay

Q: For `N[C@@H]1CCCC[C@H]1N.[Cl][Pt+2]([Cl])([Cl])[Cl]` (racemic) [Ormaplatin, rac-(DACH)PtCl4], which “Incidence of neurotoxicity in patients % (95% CI)” value ([1]; ref Schilder et al, 1994, O'Rourke et al, 1998) is on record?
A: 87 (47-100) %

Q: What about the “Neurotoxic potency (cumulative dose causing altered SNCV)” value ([2]; female Wistar rats, repeated treatment twice per week at the MTD, intraperitoneal) of the same compound?
A: 26.0

Q: And the “Time to development of altered SNCV” value [2, 8]?
A: 6.0 weeks

Q: What about the Log kw [3] of the same compound?
A: 0.40 and 0.41

Q: Which results are given for `N.N.O=C([O-])C1(C(=O)[O-])CCC1.[Pt+2]` [Carboplatin]?
A: Incidence of neurotoxicity in patients % (95% CI) ([1]; ref Canetta et al, 1985): 5.8 (3.8-8.5) %; Log P [4]: -2.3; Log P ([4]; listed as carboplatin): -2.30; t (h), half-life of binding to plasma proteins in vitro [5]: 48.6 h; Time to development of altered SNCV [2, 8]: 8.0 weeks; Log kw [3]: 0.20

Q: With `N.N.[Cl][Pt][Cl]` [Cisplatin] as the compound, how does the “Time to development of altered SNCV” value ([2]; rat, in vivo, ip) read?
A: 7.0 weeks

Q: Which results are given for `CC(=O)[O][Pt]([NH2])([Cl])([Cl])([NH]C1CCCCC1)[O]C(C)=O` [JM216, bis-acetato-ammine-dichloro-cyclohexylamine-platinum(IV)]?
A: Time to development of altered SNCV [6, 9]: > 20.5 weeks; Incidence of neurotoxicity in patients % (95% CI) ([1]; ref Judson et al, 1997): 5.6 (0-27) %; t (h), half-life of binding to plasma proteins in vitro [7, 10]: 65 h; Log P [4]: -0.16; Log kw [3]: 2.27 and 2.40

Q: For `O=C1[O][Pt-2]2([NH2+]C3CCCC[C@H]3[NH2+]2)[O]C1=O` (stereo partly drawn) [Oxaliplatin, R,R-(DACH)Pt(oxalato)], which “Time to development of altered SNCV” value [6, 9] is on record?
A: 3.0 weeks

Q: And the Log kw [3]?
A: 0.44 and 0.45

Q: With `NC1CCCCC1N.[Cl-].[Cl-].[Cl-].[Cl-].[Pt+4]` (stereo not drawn) [R,R-(DACH)PtCl4] as the compound, how does the “Time to development of altered SNCV” value ([6]; rat, in vivo, po) read?
A: 4.0 weeks

Q: And the “t (h), half-life of binding to plasma proteins in vitro” value [7, 10]?
A: 0.97 h

Q: What about the Log kw [3] of the same compound?
A: 0.40 and 0.42

Q: What does the source list for `NC1CCCCC1N.O=C([O-])C(=O)[O-].[Pt+2]` (stereo not drawn) [S,S-(DACH)Pt oxalato]?
A: Time to development of altered SNCV ([6]; rat, in vivo, po): 7.0 weeks; t (h), half-life of binding to plasma proteins in vitro ([7]; rat, plasma): 1.21 h; Log kw [3]: 0.44 and 0.45

Q: For `NC1CCCCC1N.[Cl-].[Cl-].[Cl-].[Cl-].[Pt+4]` (stereo not drawn) [S,S-(DACH)PtCl4], which “Time to development of altered SNCV” value ([6]; rat, in vivo, po) is on record?
A: 7.0 weeks

Q: What about the “t (h), half-life of binding to plasma proteins in vitro” value [7, 10] of the same compound?
A: 0.78 h

Q: And the Log kw [3]?
A: 0.41
